In ChEMBL document CHEMBL1131857, “Quinolizidinyl derivatives of 5,11-dihydro-6H-pyrido[2,3-b][1,4]benzodiazepin-6-one as ligands for muscarinic receptors” (Bioorg Med Chem Lett, 1999):
pIC50: −log10 of the molar value.

Key:
[1] = molecular target: T1, Muscarinic acetylcholine receptor M2 (Rattus norvegicus, UniProt P10980); assay: Displacement of [3H]methylscopolamine binding to muscarinic M2 receptor in rat heart.
T1 sequence (P10980 whole entry): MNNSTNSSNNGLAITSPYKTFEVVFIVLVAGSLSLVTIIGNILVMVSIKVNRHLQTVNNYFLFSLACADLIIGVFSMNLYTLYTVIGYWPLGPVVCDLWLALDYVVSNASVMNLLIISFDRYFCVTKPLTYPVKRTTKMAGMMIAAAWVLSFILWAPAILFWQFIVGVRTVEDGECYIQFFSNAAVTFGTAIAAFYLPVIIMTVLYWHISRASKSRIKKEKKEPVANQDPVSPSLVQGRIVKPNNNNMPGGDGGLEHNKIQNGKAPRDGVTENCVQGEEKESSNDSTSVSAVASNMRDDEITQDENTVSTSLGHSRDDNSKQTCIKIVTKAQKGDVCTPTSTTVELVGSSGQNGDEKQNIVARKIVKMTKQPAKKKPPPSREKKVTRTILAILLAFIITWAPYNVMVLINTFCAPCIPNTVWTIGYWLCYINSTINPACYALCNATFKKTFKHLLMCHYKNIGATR

[2] = molecular target: Muscarinic acetylcholine receptor M3 (Rattus norvegicus, UniProt P08483); assay: Displacement of [3H]methylscopolamine binding to muscarinic M3 receptor in submaxillary salivary glands of rats.; assay type: tissue-based, Salivary gland
Muscarinic acetylcholine receptor M3, sequence (P08483 whole entry): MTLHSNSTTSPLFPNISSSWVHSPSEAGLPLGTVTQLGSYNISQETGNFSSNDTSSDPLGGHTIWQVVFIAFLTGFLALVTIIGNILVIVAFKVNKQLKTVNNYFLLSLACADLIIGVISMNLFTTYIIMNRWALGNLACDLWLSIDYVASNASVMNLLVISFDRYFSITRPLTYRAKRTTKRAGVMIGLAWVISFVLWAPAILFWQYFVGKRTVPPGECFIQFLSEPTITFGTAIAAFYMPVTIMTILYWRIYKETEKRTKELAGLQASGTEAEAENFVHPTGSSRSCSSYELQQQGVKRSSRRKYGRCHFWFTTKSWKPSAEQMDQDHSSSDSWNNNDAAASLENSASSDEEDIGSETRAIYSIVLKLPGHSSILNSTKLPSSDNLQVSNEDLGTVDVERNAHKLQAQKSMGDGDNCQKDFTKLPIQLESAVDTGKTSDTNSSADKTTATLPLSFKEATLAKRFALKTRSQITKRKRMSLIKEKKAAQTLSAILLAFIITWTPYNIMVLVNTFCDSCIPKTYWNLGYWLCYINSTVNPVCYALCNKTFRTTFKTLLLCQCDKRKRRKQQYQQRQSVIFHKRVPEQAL

[3] = molecular target: T2, Muscarinic acetylcholine receptor M1 (Rattus norvegicus, UniProt P08482); assay: Displacement of [3H]pirenzepine binding to muscarinic M1 receptor in brain cortex of rat.; assay type: tissue-based
T2 sequence (P08482 whole entry): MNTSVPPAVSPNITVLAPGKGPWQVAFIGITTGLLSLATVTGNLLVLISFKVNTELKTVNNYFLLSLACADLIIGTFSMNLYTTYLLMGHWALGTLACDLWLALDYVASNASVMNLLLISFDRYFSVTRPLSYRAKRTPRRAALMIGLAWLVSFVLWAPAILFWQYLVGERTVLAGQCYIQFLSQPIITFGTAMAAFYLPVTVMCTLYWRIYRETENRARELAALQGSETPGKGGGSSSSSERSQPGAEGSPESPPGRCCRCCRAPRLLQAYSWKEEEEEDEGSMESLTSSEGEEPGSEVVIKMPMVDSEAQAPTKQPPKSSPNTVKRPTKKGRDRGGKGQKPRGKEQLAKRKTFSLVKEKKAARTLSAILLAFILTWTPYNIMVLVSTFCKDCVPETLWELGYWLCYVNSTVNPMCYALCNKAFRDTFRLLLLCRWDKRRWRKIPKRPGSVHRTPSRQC

Structure (SMILES) | pIC50 [1] | pIC50 [2] | pIC50 [3]
Cc1cc(C(=O)c2ccccc2)ccc1NC(=O)CC1CCCN2CCCC[C@H]12 (some centres undefined) | 5.62 | 5.89 | 8.10
O=C1Nc2cccnc2N(C(=O)C[C@@H]2CCCN3CCCCC23)c2ccccc21 (some centres undefined) | 5.22 | < 5.00 | 6.96
O=C1Nc2ccccc2N(C(=O)CC2CCCN3CCCCC23)c2ncccc21 (centres undefined) | 5.17 | < 5.00 | 6.19
O=C1c2ccccc2-n2c(nc3cccnc32)CN1C[C@@H]1CCCN2CCCC[C@H]12 | 4.92 | < 5.00 | 5.92
O=C1Nc2cccnc2N(C(=O)C[C@H]2CCCN3CCCCC23)c2ccccc21 (some centres undefined) | 5.72 | 5.46 | 7.40

Now those with a higher pIC50 [1], led by results:

pIC50 [1] | pIC50 [2] | pIC50 [3] | Structure (SMILES)
6.12 | 6.12 | 8.00 | O=C1Nc2cccnc2N(C(=S)CC2CCCN3CCCC[C@@H]23)c2ccccc21 (some centres undefined)
6.12 | 6.12 | 8.00 | O=C1Nc2cccnc2N(C(=O)CSCC2CCCN3CCCCC23)c2ccccc21 (centres undefined)
6.00 | 6.10 | 7.55 | O=C1Nc2cccnc2N(C(=O)CNCC2CCCN3CCCCC23)c2ccccc21 (centres undefined)
